How the values were obtained:
NRP-154 cells [1] = test: Apoptosis / cell death (DNA laddering, morphology), NRP-154 cells; format: cell-based, rat; details: 24 hours; okadaic acid 30 nM, staurosporine 2 nM
Procedure: (§1) 2×10^5 M-NRP1 cells or NRP-154 cells were plated in 6-well dishes. After 24 hours, 2 ml DMEM/F12 containing 15 mM HEPES, 1% calf serum, and 0.1 μM dexamethasone were added to the plates. The cells were cultured at 37° C. for 24 hours and then detached by trypsinization.
(§2) Internucleosomal DNA ladders were detected with a modification (described below) of TACS apoptotic DNA ladder kit (Trevigen, Githersburg, Md.). Briefly, the detached cells were centrifuged at 600×g to form cell pellets. The cell pellets were then resuspended in 25 μl PBS and lysed by the addition of 25 μl of lysis buffer. DNA was purified from the mixture as directed by Trevigen.
The nicked ends of the DNA were ^32P-labeled by incubating 1 μg of DNA with 2.5 units of Klenow fragment of DNA Poll in the presence of 0.5 μCi of (α-^32P) dCTP (3 Ci/mmol, Dupont NEN, Boston, Mass.) for 30 min at room temperature in a 10 μl reaction volume containing 5 mM MgCl2 and 10 mM Tris-HCl (pH 7.5). One third of the labeled DNA was electrophoresed through 1.8% agarose-1×TAE at 70 V for 2 hours. […]
(§3) NRP-154 and M-NRP1 cells were treated with a control (i.e., the identical solution without the agent of interest) or with 10 ng/ml TGF-β, okadaic acid (30 nM) or staurosporine (2 nM) for 24 hours. Apoptosis was determined by DNA laddering, essentially as described in Example VA, above.

M-NRP1 cells [2] = test: Apoptosis (DNA laddering, morphology), M-NRP1 cells; format: cell-based, rat; details: 24 hours; 10 ng/ml TGF-β, okadaic acid 30 nM, staurosporine 2 nM
Procedure: as §1, §2
The nicked ends of the DNA were ^32P-labeled by incubating 1 μg of DNA with 2.5 units of Klenow fragment of DNA Poll in the presence of 0.5 μCi of (α-^32P) dCTP (3 Ci/mmol, Dupont NEN, Boston, Mass.) for 30 min at room temperature in a 10 μl reaction volume containing 5 mM MgCl2 and 10 mM Tris-HCl (pH 7.5). One third of the labeled DNA was electrophoresed through 1.8% agarose-1×TAE at 70 V for 2 hours. Gels were dried and exposed to X-Omat AR (Kodak, Rochester, N.Y.) for about 1 hour.
Staurosporine and okadaic acid (Upstate Biotechnology Incorporated, Lake Placid, N.Y.) were dissolved in dimethyl sulfoxide (DMSO) and diluted to a final concentration of 2 nM and […], respectively, in 0.01% DMSO.
as §3

M-NRP1 cells [3] = test: Thymidine incorporation assay, M-NRP1 cells; format: cell-based, rat; details: 24 hr treatment with 10 ng/ml TGF-β1
Procedure: (§4) M-NRP1 and NRP-154 cells were plated at 1×10^5 cells per well in 24 well plates and allowed to attach overnight. Incorporation of (^3H)-thymidine was measured by adding radioactivity for 3 hours, 24 hours after addition of control or 10 ng/ml TGF-β1. Plates were counted on a Packard Top Count. Parallel plates (e.g., those treated in an identical manner) were harvested by trypinization for counting in a Coulter Counter.

NRP-154 cells [4] = test: TUNEL assay, NRP-154 cells; format: cell-based, rat; details: 10 ng/ml TGF-β, 24 hours
Procedure: (§5) TUNEL assays were performed using the TACS In Situ Apoptosis Detection Kit (Trevigen). Briefly, NRP-154 and M-NRP1 cells were plated at 8×10^4 cells/ml in a 96 well plate and allowed to attach overnight. Cells were then treated with either 10 ng/ml TGF-β (R&D Systems, Inc., Minneapolis, Minn.), or control (i.e., the identical solution without TGF-β) for 24 hours, fixed with formaldehyde and analyzed for stained nuclei according to the manufacturer's instructions.

[5] = test system: caspase 3 in NRP-154 cells; test: Caspase 3 fluorescent activity assay, NRP-154 cells; format: cell-based, rat; details: 10 ng/ml TGF-β 24 hours
Procedure: Cells were seeded to 50% confluence in six-well plates in media containing 10% fetal calf serum overnight. Following 24 hours after transfection, cells media was changed to contain 1% fetal calf serum with or without 10 ng/ml TGF-β for additional 24 hours. Cells were treated with caspase 3 aldehyde inhibitor (Ac-DEVD-CHO) supplied with caspase 3 fluorescent activity kit according to the manufacturers' protocols (Pharmingen, San-Diego, Calif.). Results were read using FL-600 microplate fluorescence reader (Bio-Tek).

M-NRP1 cells [6] = test: TUNEL assay, M-NRP1 cells; format: cell-based, rat; details: 10 ng/ml TGF-β, 24 hours
Procedure: as §5

NRP-154 cells [7] = test: Thymidine incorporation assay, NRP-154 cells; format: cell-based, rat; details: 24 hr treatment with 10 ng/ml TGF-β1
Procedure: as §4

[8] = test system: cyclin A promoter construct (pCAL2) in NRP-154 cells; test: Cyclin A promoter construct pCAL2-luc luciferase assay, NRP-154 cells; format: cell-based, rat; details: 24 hours of treatment with 10 ng/ml TGF-β
Procedure: (§6) M-NRP1 and NRP-154 cells were cultured in 10% fetal bovine serum as described by Chaudhary et al., (1998) J. Biol. Chem. 273: 17708-17712) and exposed to 10 ng/ml TGF-β1 for 24 hours.
(§7) M-NRP1 cells were transiently transfected with pCal-luc (a pCAL2 reporter construct described by Keeton et al., (1991) J. Biol. Chem. 266: 23048-23052) using the Lipofectamine (Gibco BRL Life Technologies, Gaithersburg, Md.) transfection reagent.
(§8) Activity of the transiently transfected cyclin A promoter construct, pCal2-luc, was assessed by a luciferase assay and measured using a luminometer. The basal activity (e.g., without TGF-β treatment) of pCAL2 was similar in MNRP-1 and NRP-154 cells.

[9] = test system: cyclin A promoter construct (pCAL2) in M-NRP1 cells; test: Cyclin A promoter construct pCAL2-luc luciferase assay, M-NRP1 cells; format: cell-based, rat; details: 24 hours of exposure to 10 ng/ml TGF-β
Procedure: as §6, §7, §8

COS cells = test: TUNEL assay of transfected COS cells; format: cell-based, monkey; details: COS cells transfected with control vector, 10 ng/ml TGF-β for 24 hours
Procedure: COS cells were cultured as previously described (Section E, above). […] When these cells are transfected with ARTS and treatment with TGF-β they are induced to cell death.
COS cells were then transfected with control vector or wildtype ARTS, essentially as described above, and treated with 10 ng/ml TGF-β for 24 hours.
The apoptotic response of COS cells to TGF-β was assessed by a TUNEL assay ([…], now Roche, Indianapolis, Ind.) following the manufacturer's instructions.
COS cells were cultured and transfected, as described above, with equal concentrations of either pcDNA3 control vector, ARTS or M-ARTS-pcDNA3 using the Lipofectamine transfection reagent (Gibco BRL Life Technologies, Gaithersburg, Md.). The cells were treated with 1 o ng/ml TGF-β for 24 hours.
Apoptosis was examined in a TUNEL assay (Boehringer-Mannheim), according to the manufacturer's instructions.

NRP-154 cells [10] = details: 48-72 hours exposure to 10 ng/ml TGF-β; cited from earlier work

| Compound | apoptosis (NRP-154 cells [1]) | apoptosis (M-NRP1 cells [2]) | (3H)-thymidine uptake stimulated (M-NRP1 cells [3]) [%] | TUNEL staining of nuclei (NRP-154 cells [4]) | caspase 3 activity [5] | TUNEL staining of nuclei (M-NRP1 cells [6]) | (3H)-thymidine uptake inhibited (NRP-154 cells [7]) | pCAL2 activity [8] | activity of the pCal-luc reporter [9] | apoptosis (TUNEL) (COS cells) | cell death (NRP-154 cells [10]) |
| --- | --- | --- | --- | --- | --- | --- | --- | --- | --- | --- | --- |
| CN[C@@H]1C[C@H]2O[C@@](C)([C@@H]1OC)n1c3ccccc3c3c4c(c5c6ccccc6n2c5c31)C(=O)NC4 [staurosporine] | morphologically evident shrinkage, nuclear fragmentation, and loss of attachment characteristic of apoptosis | remain sensitive to apoptosis | – | – | – | – | – | – | – | – | – |
| TGF-β: recombinant human TGF-β1 (R&D Systems), transforming growth factor-β | – | resistant to apoptosis | 14 | strong TUNEL staining of apoptotic nuclei | caspase 3 was activated | most nuclei from M-NRP1 cells remained intact | greater than 80% | strong decrease | unaffected | did not undergo apoptosis | over 80% |
| C=C1[C@@H](O)[C@@H]2O[C@]3(CC[C@H](/C=C/[C@@H](C)[C@@H]4CC(C)=C[C@@]5(O[C@H](C[C@@](C)(O)C(=O)O)CC[C@H]5O)O4)O3)CC[C@H]2O[C@@H]1[C@@H](O)C[C@H](C)[C@H]1O[C@@]2(CCCCO2)CC[C@H]1C [okadaic acid] | morphologically evident shrinkage, nuclear fragmentation, and loss of attachment characteristic of apoptosis | remain sensitive to apoptosis | – | – | – | – | – | – | – | – | – |

Reference: patent US20030124571A1, “Novel human septin and uses therefor” (The Government of the United States of America, priority 2000, published 2003)
